# Where two headings read alike, the source gives them in different places.
# What was measured:
# [1] = biological target: T1, arginine methyltransferase CARM1 (Homo sapiens, UniProt Q86X55); assay: Filterbinding and gel (fluorography) HMTase assay against CARM1; type: biochemical
# T1 sequence (Q86X55 1-608): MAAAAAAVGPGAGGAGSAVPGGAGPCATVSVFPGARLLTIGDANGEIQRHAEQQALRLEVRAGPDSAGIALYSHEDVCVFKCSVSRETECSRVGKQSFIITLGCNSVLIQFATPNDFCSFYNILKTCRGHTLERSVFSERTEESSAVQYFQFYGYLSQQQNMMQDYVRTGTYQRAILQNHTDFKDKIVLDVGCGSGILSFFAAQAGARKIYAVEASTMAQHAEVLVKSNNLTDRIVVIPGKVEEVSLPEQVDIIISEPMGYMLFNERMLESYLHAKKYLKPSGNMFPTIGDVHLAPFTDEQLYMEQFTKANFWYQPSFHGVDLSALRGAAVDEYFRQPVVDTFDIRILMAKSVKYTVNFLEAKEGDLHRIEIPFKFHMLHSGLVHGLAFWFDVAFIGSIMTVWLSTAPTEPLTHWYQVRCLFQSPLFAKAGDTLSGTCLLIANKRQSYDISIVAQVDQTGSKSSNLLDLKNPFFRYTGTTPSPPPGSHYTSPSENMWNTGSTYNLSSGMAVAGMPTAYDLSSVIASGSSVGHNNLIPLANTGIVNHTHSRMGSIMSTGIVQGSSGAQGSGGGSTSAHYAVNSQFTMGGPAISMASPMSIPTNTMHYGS
# Excerpt: (§1) FIG. 1a: Effect of LTK20 on Histone Modifying Enzymes (Filterbinding Assay) Filterbinding Assay of LTK20 carried out with the Histone acetyltransferases p300, PCAF and Histone methyltransferases CARM1, G9a. Lane 1—histones alone, lane 2—Enzyme control, lane 3—DMSO control, lane 4-5, LTK20 in increasing concentration.
# (§2) FIG. 1b: Effect of LTK20 on Histone Modifying Enzymes (Fluorography) Gel Assay of LTK20 carried out with Histone acetyltransferases p300, PCAF and Histone methyltransferases CARM1, G9a. Lane 1—histones alone, lane 2—Enzyme control, lane 3—DMSO control, lane 4 & 5—LTK20 in increasing concentration.
# (§3) (2,3,7,8-TETRAHYDROXY[1]BENZOPYRANO[5,4,3(DE)[1]BENZOPYRAN5,10-DIONE) was identified as a specific inhibitor of the arginine methyltransferase CARM1 with an IC50 of 20 μM, both by filterbinding (FIG. 1a) and fluorography assays (FIG. 1b).
# [2] = biological target: T2, lysine methyltransferase G9a (Homo sapiens, UniProt Q96KQ7); assay: Filterbinding and gel (fluorography) HMTase assay against G9a; type: biochemical
# T2 sequence (Q96KQ7 1-1210): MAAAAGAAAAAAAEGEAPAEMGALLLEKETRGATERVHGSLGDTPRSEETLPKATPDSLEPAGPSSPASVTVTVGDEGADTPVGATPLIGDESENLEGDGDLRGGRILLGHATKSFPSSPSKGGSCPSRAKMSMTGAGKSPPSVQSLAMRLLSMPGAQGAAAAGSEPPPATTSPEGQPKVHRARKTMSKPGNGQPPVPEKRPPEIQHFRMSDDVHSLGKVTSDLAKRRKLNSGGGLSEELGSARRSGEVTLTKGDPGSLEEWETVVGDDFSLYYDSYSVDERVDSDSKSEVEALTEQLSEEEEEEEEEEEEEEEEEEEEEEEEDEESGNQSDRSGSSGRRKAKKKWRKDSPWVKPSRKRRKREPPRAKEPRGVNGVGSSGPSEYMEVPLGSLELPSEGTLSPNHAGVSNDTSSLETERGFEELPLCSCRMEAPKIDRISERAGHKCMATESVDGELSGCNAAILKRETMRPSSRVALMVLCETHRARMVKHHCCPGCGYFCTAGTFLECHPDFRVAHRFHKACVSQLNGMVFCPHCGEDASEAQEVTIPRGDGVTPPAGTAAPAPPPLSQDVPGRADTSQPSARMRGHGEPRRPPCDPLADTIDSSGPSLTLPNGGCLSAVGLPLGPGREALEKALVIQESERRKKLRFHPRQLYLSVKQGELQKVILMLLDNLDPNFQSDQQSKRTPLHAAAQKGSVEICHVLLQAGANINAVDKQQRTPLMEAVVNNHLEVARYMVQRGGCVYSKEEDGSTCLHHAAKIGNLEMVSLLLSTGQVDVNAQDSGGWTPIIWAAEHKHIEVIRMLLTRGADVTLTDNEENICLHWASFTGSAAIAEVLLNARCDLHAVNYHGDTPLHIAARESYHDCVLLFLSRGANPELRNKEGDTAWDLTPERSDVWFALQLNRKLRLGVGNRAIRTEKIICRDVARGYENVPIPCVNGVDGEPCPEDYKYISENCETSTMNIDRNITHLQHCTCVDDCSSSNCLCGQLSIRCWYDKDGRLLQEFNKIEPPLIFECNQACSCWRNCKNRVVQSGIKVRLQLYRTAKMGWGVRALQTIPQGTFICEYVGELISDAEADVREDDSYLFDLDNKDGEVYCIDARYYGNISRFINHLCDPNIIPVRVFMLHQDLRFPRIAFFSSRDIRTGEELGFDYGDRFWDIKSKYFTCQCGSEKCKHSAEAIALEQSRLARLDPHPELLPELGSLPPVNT
# Excerpt: as §1, §2, §3
# [3] = biological target: histone acetyltransferase p300 (Homo sapiens, UniProt Q09472); assay: Filterbinding and gel (fluorography) HAT assay against p300; type: biochemical
# Excerpt: as §1, §2, §3
# [4] = biological target: histone acetyltransferase PCAF (Homo sapiens, UniProt Q92831); assay: Filterbinding and gel (fluorography) HAT assay against PCAF; type: biochemical
# Excerpt: as §1, §2, §3
# CARM1 [5] = biological target: T3, CARM1 (Homo sapiens, UniProt Q86X55); assay: Kinetic analysis of the pattern of inhibition of CARM1 methylation of histone H3; type: biochemical; conditions: recombinant histone H3 and tritiated SAM varied; two inhibitor concentrations
# T3 sequence (Q86X55 1-608): T1 sequence (Q86X55 1-608)
# Experimental: Since the inhibitor is specific to CARM1 mediated methylation of histones which is directed to the histone H3, histone H3 was used as the substrate for the kinetic analysis. Initially, the inhibition was confirmed using the recombinant histone as the substrate. CARM1 methylation reaction was carried out using increasing concentration of histone H3 and the methyl group donor, tritiated SAM keeping the enzyme concentration constant. Two different inhibitor concentrations were assayed.
# histone H3 = histone H3 (Homo sapiens, UniProt P68431); assay: Isothermal Calorimetric Titration with substrate histone H3; type: binding; conditions: substrate in cell titrated against inhibitor
# Excerpt: FIG. 2: Binding Isotherm of Histone H3 with LTK20 Isothermal Calorimetric Titration carried out with the protein histone H3 and the ligand LTK20, which is the inhibitor.
# (§4) The pattern of inhibition is uncompetitive indicating the mode of inhibition is via the Enzyme-Substrate complex, the binding of the inhibitor has been characterized by Isothermal Calorimetric Titration wherein either the substrate (histone H3) or enzyme (CARM1) was taken in the cell and titrated against the inhibitor (2,3,7,8TETRAHYDROXY[1]BENZOPYRANO[5,4,3(DE)[1]BENZOPYRAN5,10-DIONE).
# CARM1 [6] = biological target: T3, CARM1; assay: Isothermal Calorimetric Titration with enzyme CARM1; type: binding; conditions: enzyme in cell titrated against inhibitor
# Excerpt: as §4
# [7] = biological target: CARM1 methylation sites on histone H3, R17 and R26 (Homo sapiens, UniProt P68431); assay: In vitro CARM1 methylation reaction, western analysis with site-specific antibodies; type: biochemical
# Experimental: (§5) FIGS. 3a and 3b: Preferential Inhibition of CARM1 Mediated Methylation Site-specific inhibition of arginine methylation of histone H3 observed in the presence of LTK20 both in vitro and in vivo. H3R17 and H3R26 are both CARM1 methylation sites on histone H3.
# In vitro CARM1 methylation reaction was carried out in the presence or absence of inhibitors, and probed with antibodies against the specific CARM1 methylation sites on histone H3, R17 and R26.
# [8] = tested on: CARM1 methylation sites on histone H3, R17 and R26 in HeLa cells; assay: HeLa cells, western analysis of acid extracted histones; type: cell-based; conditions: for Methylation of H3R17: 50 μM, 24 hours
# Experimental: as §5
# In vivo characterization was done by treating HeLa cells with the molecule at 50 μM concentration for a period of 24 hours, and the acid extracted histones were probed with antibodies against CARM1 methylation sites on histone H3, R17 and R26.
# [9] = tested on: CARM1 methylation sites on histone H3, R17 and R26 in HeLa cells; assay: HeLa cells, immunofluorescence analysis; type: cell-based; conditions: 50 μM, 24 hours
# Experimental: FIGS. 3c and 3d: Immunofluorescence Analysis of LTK20 Treated HeLa Cells
# In vivo characterization was done by treating HeLa cells with the molecule at 50 μM concentration for a period of 24 hours, and the cells were probed with antibodies against CARM1 methylation sites on histone H3, R17 and R26 and were visualized by anti rabbit alexa fluor 488 antibody.
# U2OS cells = assay: Modulation of p53 and p21 protein levels in U2OS cells by western analysis; type: cell-based; conditions: for p21 levels: UV irradiated U2OS cells, vs DMSO control
# Excerpt: FIG. 4: Immunoblot Analysis with p21 Antibody UV irradiated U2OS cells treated with or without inhibitors. The lysate was probed with antibody against p21. p21 levels show an increase in the presence of LTK20 as compared to the DMSO control.
# Physiological effect of the inhibitor was characterized by selecting the p53 system, since CARM1 mediated histone methylation is known to cooperatively enhance the transcriptional activation of p53 responsive genes. […] U2OS, which is a p53 positive cell line was used for the assay, and on treatment with molecule at 50 μM concentration for a period of 24 hours, p53 levels were altered. Since, the p53 responsive genes had to be assayed, p21 was selected (there is no apoptosis, therefore the apoptosis genes were not selected). UV irradiated cells were treated with (2,3,7,8-TETRAHYDROXY[1]BENZOPYRANO[5,4,3(DE)[1]BENZOPYRAN5,10-DIONE) for a period of 24 hours and the lysate was probed with antibody against p21. […] This clearly indicates a possible implication of this molecule in the tumor suppressor p53 mediated transcriptional activation.
# [10] = filterbinding, HeLa core histones
# [11] = listed as (2,3,7,8-TETRAHYDROXY[1]BENZOPYRANO[5,4,3(DE)[1]BENZOPYRAN5,10-DIONE)
# Sequence of histone acetyltransferase PCAF (Q92831 whole entry): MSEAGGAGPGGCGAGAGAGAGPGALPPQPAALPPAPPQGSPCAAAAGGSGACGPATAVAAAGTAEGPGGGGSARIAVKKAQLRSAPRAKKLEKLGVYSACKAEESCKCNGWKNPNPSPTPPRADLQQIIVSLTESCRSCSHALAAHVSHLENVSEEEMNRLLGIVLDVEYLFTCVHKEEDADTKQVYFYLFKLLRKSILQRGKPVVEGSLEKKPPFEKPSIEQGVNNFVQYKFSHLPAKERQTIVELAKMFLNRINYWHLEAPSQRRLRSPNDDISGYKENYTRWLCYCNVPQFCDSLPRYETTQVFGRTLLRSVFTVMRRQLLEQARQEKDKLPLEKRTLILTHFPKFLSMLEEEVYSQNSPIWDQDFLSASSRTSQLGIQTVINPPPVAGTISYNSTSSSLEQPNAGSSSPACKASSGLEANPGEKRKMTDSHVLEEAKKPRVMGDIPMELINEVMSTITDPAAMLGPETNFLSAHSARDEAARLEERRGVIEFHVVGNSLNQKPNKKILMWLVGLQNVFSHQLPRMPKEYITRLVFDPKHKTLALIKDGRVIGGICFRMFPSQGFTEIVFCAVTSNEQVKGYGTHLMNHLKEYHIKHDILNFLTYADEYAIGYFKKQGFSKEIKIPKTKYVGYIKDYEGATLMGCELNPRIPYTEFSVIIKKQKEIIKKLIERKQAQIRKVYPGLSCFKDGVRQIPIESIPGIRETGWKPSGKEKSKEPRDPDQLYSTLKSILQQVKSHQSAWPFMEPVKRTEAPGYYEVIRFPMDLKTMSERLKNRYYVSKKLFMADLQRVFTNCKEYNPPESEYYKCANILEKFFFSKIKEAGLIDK
# Sequence of histone acetyltransferase p300 (Q09472 whole entry): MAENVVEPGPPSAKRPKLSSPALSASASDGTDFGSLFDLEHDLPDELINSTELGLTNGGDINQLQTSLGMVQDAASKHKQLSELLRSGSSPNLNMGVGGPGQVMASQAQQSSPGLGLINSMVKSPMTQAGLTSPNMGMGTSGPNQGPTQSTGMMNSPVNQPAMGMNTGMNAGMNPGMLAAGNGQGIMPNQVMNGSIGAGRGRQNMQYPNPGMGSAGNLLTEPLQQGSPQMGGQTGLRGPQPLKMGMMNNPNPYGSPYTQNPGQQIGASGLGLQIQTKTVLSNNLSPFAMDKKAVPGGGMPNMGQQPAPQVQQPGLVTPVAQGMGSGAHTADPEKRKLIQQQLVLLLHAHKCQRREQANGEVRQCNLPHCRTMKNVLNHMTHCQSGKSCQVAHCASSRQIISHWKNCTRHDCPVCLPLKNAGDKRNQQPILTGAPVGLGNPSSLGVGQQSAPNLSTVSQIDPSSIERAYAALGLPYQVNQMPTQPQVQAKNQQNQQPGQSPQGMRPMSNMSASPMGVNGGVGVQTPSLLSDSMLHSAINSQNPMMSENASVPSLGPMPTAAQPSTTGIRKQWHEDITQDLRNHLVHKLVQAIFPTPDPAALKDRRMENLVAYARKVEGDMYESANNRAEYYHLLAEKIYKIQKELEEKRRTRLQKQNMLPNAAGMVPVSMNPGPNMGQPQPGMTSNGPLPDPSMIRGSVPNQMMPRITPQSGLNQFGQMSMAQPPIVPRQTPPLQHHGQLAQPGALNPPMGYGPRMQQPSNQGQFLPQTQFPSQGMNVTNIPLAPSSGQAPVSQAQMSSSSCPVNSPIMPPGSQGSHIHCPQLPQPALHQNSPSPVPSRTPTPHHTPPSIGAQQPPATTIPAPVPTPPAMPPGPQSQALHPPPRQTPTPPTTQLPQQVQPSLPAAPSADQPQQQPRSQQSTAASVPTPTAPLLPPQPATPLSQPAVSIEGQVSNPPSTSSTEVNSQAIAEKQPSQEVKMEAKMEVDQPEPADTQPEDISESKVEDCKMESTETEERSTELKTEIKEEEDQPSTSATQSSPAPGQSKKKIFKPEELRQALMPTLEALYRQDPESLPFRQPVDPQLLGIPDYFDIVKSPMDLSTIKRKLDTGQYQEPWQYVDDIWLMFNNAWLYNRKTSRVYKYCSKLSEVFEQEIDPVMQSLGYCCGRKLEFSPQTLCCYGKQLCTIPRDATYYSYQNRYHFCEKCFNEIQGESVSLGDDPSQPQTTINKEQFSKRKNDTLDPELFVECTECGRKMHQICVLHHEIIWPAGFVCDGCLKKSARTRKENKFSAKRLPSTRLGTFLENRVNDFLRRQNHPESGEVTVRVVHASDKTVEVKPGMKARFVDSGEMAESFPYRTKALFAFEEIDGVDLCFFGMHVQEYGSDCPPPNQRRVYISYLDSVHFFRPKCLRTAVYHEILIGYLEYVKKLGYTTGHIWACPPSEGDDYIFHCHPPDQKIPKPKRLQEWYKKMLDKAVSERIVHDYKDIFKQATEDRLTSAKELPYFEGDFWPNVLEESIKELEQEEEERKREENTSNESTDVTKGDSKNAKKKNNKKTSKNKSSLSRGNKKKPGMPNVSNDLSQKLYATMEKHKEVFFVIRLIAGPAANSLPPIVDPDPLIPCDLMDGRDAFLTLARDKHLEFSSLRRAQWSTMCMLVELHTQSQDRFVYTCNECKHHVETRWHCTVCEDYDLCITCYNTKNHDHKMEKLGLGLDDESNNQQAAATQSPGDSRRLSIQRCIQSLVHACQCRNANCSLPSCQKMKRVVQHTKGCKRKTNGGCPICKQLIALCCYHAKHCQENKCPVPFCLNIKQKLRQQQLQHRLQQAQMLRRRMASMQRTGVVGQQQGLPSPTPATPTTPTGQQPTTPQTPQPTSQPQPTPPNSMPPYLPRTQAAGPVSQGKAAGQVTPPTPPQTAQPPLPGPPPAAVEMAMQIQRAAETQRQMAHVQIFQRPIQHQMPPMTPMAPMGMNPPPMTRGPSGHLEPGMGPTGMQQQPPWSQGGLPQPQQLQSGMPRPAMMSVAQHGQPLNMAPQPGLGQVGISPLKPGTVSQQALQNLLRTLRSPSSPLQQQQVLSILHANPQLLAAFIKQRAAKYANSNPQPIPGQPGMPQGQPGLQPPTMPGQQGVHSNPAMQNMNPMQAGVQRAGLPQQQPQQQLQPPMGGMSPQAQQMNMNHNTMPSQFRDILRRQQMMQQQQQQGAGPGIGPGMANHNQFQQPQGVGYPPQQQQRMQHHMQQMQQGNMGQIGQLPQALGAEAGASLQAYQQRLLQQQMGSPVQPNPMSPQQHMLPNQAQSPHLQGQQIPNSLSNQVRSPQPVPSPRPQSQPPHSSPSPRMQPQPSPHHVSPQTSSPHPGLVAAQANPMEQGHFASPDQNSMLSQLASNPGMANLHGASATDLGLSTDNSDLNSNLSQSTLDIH
compound,measurement,setting,value
"O=c1oc2c(O)c(O)cc3c(=O)oc4c(O)c(O)cc1c4c23 [LTK20, (2,3,7,8-TETRAHYDROXY[1]BENZOPYRANO [5,4,3(DE)[1]BENZOPYRAN 5,10-DIONE)]",IC50,"[1]; HeLa core histones as substrate, both filterbinding and fluorography assays",20 µM
same,Effect on CARM1 activity (filterbinding assay),[1]; [10],inhibits CARM1 activity
same,"Effect on CARM1 activity (gel assay, fluorography)",[1]; fluorography,inhibits CARM1 activity
same,Effect on G9a activity (filterbinding assay),[2]; [10],does not act on other enzymes
same,"Effect on G9a activity (gel assay, fluorography)",[2]; fluorography,does not act on other enzymes
same,Effect on p300 activity (filterbinding assay),[3]; filterbinding,does not act on other enzymes
same,"Effect on p300 activity (gel assay, fluorography)",[3]; fluorography,does not act on other enzymes
same,Effect on PCAF activity (filterbinding assay),[4]; filterbinding,does not act on other enzymes
same,"Effect on PCAF activity (gel assay, fluorography)",[4]; fluorography,does not act on other enzymes
same,Pattern of CARM1 methylation inhibition,CARM1 [5],uncompetitive
same,Binding to histone H3 (ITC),histone H3,fits to the two sequential binding site model
same,Binding to histone H3 (ITC),"histone H3; listed as (2,3,7,8TETRAHYDROXY[1]BENZOPYRANO[5,4,3(DE)[1]BENZOPYRAN5,10-DIONE)",binds to the substrate at two sequential binding sites
same,Binding to CARM1 (ITC),CARM1 [6],no binding of the molecule to the enzyme
same,Methylation of H3R17,[7],inhibited
same,Methylation of H3R26,[7],getting methylated
same,Methylation of H3R17,[7]; [11],Site-specific inhibition of H3R17
same,Methylation of H3R26,[8],getting methylated
same,Methylation of H3R17,[8],inhibited
same,Methylation of H3R17,[8]; [11],Site-specific inhibition of H3R17
same,Methylation of H3R17,[9],Site-specific inhibition of H3R17
same,Apoptosis,U2OS cells; U2OS cells,no apoptosis
same,p53 levels,"U2OS cells; U2OS, 50 μM, 24 hours",altered
same,p21 levels,U2OS cells; 24 hours,increase
same,p21 levels,"U2OS cells; 24 hours, listed as (2,3,7,8-TETRAHYDROXY[1]BENZOPYRANO[5,4,3(DE)[1]BENZOPYRAN5,10-DIONE)",increase in p21 levels

# — patent US8003698B2, “Site-specific inhibitors of histone methyltransferase (HMTASE) and process of preparation thereof” (Jawaharlal Nehru Centre for Advanced Scientific Research, priority 2006, dated 2011)
